According to US20050095240A1, “NaCT as a target for lifespan expansion and weight reduction” (Medical College of Georgia Research, priority 2002, published 2005):

Legend:
[1] = molecular target: T1, ceNaCT (Caenorhabditis elegans, UniProt P32739, I91S/L182M); test: ceNaCT in X. laevis oocytes: uptake and two-electrode voltage clamp; format: cell-based
T1 sequence (P32739 1-551 I91S/L182M): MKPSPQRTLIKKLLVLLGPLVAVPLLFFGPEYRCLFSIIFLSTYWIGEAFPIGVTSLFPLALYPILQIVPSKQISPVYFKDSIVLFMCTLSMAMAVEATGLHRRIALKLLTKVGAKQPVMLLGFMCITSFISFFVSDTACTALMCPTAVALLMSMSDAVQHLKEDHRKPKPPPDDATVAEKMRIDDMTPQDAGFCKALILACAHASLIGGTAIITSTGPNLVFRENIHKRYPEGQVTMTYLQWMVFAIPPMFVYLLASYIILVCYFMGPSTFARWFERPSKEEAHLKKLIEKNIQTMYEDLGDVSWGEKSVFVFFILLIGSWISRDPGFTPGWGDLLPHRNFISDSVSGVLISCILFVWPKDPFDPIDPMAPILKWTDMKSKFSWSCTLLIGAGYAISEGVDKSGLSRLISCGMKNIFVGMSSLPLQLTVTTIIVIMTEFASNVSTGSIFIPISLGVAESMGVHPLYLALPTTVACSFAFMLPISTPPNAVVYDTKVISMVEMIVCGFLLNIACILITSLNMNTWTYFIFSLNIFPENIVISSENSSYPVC
Excerpt: Electrophysiological studies of ceNaCT transport activity. Initially, ceNaCT cRNA prepared from the pSPORT-ceNaCT cDNA construct was used for functional expression of the transporter in X. laevis oocytes. These initial attempts were unsuccessful. Therefore, a X. laevis oocyte expression vector was used. The coding sequence of ceNaCT cDNA was amplified by PCR using the following primers: 5′-[…]-3′ (SEQ ID NO:23) (forward primer) and 5′-[…]-3′ (SEQ ID NO:24) (reverse primer). The forward primer contained the start codon and also an Xma I site introduced at the 5′-end for the purpose of subcloning. The reverse primer contained the termination codon and also a BamH I site at the 5′end for the purpose of subcloning. The PCR-derived ceNaCT coding fragment was then inserted into the Xma I/BamH I site in the oocyte expression vector pGHl9.

[2] = molecular target: T2, drIndy (Drosophila melanogaster, UniProt Q9VVT2); test: cell-based
[3] = molecular target: human NaCT (Homo sapiens, UniProt Q86YT5); test: Uptake via human NaCT expressed in HRPE cells; format: cell-based; conditions: for [^14C]-Citrate Uptake (cDNA-specific) / [^14C]-Citrate Uptake, %: [14C]-citrate 20 μM, unlabeled compound 2.5 mM; for [^14C]-Citrate Uptake, %: none = 100
[4] = molecular target: Phe→Leu mutant of human NaCT (Homo sapiens, UniProt Q86YT5, F500L); test: Citrate uptake via Phe→Leu mutant of human NaCT in HRPE cells; format: cell-based
[5] = molecular target: T3, hNaDC3 (Homo sapiens, UniProt Q8WWT9); test: cell-based
T3 sequence (Q8WWT9 1-602): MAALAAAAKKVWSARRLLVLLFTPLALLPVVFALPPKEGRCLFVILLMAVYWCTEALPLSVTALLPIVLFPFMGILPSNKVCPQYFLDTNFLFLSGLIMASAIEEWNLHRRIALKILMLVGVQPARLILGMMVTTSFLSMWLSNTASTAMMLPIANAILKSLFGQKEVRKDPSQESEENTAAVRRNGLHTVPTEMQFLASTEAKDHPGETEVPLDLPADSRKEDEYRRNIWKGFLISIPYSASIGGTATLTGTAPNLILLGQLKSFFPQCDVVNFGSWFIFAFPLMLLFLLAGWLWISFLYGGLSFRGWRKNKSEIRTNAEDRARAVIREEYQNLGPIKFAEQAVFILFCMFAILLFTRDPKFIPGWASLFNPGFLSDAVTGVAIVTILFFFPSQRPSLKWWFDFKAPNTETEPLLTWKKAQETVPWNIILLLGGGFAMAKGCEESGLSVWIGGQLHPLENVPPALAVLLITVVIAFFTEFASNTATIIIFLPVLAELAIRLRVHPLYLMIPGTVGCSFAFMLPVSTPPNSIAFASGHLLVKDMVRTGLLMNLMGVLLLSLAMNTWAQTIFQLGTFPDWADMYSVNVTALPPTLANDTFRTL

[6] = test system: NaDC3; conditions: cited from earlier work
[7] = test system: NaDC1; conditions: cited from earlier work
[8] = molecular target: T3, hNaDC3; conditions: read-out: Km for succinate, hNaDC3; as determined by Wang et al.; cited from earlier work
[9] = molecular target: T2, drIndy; conditions: succinate 0.1 μM
[10] = molecular target: T4, rat NaDC3 (Rattus norvegicus, UniProt Q9Z0Z5); conditions: medium with 135 μM citrate and 40 μM succinate
T4 sequence (Q9Z0Z5 1-600): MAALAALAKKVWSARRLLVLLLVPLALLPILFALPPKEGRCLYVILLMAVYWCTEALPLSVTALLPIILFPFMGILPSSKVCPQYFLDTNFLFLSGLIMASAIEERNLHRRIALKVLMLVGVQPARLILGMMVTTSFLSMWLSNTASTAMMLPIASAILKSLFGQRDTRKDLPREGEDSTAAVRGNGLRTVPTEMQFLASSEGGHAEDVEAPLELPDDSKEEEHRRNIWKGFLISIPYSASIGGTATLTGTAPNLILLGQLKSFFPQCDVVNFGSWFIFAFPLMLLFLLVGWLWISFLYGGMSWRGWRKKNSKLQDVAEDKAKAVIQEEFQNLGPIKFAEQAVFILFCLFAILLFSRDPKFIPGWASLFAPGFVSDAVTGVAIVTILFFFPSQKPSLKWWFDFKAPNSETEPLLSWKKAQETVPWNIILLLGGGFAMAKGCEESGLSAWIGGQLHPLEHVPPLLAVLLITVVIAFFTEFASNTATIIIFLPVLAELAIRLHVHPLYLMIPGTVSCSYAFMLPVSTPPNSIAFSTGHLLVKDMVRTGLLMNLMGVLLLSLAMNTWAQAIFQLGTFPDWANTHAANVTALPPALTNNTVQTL

Chain of human NaCT (Q86YT5 whole entry): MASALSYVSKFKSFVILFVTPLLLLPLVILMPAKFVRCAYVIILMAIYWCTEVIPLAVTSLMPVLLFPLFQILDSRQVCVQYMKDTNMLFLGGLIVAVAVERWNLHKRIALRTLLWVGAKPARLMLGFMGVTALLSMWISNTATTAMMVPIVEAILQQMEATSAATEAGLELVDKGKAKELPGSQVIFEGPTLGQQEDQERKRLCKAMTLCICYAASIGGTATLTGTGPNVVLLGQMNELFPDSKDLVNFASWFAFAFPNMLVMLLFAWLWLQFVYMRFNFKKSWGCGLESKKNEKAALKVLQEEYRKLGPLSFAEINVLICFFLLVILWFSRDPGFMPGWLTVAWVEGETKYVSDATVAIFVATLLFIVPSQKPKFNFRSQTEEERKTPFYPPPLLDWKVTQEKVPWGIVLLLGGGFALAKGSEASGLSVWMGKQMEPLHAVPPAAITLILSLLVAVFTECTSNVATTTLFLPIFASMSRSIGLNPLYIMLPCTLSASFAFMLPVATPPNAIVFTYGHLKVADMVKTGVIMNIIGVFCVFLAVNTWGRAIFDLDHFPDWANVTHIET
T2 sequence (Q9VVT2 19-590): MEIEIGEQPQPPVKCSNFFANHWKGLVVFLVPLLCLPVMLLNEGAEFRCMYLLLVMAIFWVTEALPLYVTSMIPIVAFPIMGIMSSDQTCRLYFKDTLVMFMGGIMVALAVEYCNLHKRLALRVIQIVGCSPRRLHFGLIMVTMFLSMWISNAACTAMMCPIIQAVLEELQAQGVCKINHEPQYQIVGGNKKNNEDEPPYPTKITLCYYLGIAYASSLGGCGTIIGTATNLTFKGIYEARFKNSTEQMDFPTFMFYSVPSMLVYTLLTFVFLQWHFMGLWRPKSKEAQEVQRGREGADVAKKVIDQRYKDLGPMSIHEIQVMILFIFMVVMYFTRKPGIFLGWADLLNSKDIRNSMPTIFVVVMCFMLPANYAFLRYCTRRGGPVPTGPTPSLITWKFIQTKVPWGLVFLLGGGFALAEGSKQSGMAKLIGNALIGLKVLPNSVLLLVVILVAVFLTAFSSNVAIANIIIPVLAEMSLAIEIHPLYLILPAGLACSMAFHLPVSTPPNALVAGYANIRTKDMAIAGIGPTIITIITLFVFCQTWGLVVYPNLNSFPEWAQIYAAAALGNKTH
Chain of Phe→Leu mutant of human NaCT (Q86YT5 whole entry F500L): as the sequence (Q86YT5 whole entry) above, with F500L counted along it

O=C(O)CC(O)(CC(=O)O)C(=O)O [Citrate]
Uptake in cRNA-injected vs water-injected oocytes ([1]; citrate 40 μM, pH 6.5): about 45 fold
Uptake of [^14C]citrate in ceNaCT cRNA-injected oocytes ([1]; citrate 40 μM, pH 6.5): 12.9±0.8 pmol/oocyte/15 min
pH-dependent stimulation, pH 7.5 to 6.5 ([1]; citrate 250 μM): about 1.25 fold
Maximal current (Imax) ([1]; testing membrane potential −50 mV): 12.3±0.6 nA
K0.5, concentration of citrate for half-maximal current ([1]; testing membrane potential −70 mV, pH 6.5): 34 ± 8 µM
Maximal current (Imax) ([1]; testing membrane potential −150 mV): 61.1±2.6 nA
Ki [2]: 105 ± 35 µM
IC50 [3]: 688 ± 150 µM
Kt for citrate via human NaCT in the presence of Li+ ([3]; 10 mM Li+): 95 ± 15 µM
[^14C]-Citrate Uptake (cDNA-specific) [3]: 7.7 ± 0.7 pmol/10^6 cells/min
[^14C]-Citrate Uptake, % [3]: 16%
Uptake in human NaCT cDNA-transfected cells vs vector alone ([3]; citrate 20 μM, NaCl): about 23 fold
Affinity of human NaCT for citrate less than that of rat NaCT ([3]; identical assay conditions): about 30 fold
Kt (Michaelis-Menten constant) for citrate uptake via human NaCT ([3]; wild type, absence of Li+): 604 ± 73 µM
Increase in substrate affinity of mutant vs wild type [4]: 7 fold
Kt for citrate, Phe→Leu mutant [4]: 78 ± 8 µM
Ki [5]: 2100 ± 300 µM

O=C(O)CCC(=O)O [Succinate, succinate]
Michaelis-Menten constant for succinate, NaDC3 [6]: 2 to 50 µM
Michaelis-Menten constant for succinate, NaDC1 [7]: 0.1 to 4.0 mM
IC50 [3]: 1920 ± 480 µM
[^14C]-Citrate Uptake (cDNA-specific) [3]: 32.1 ± 3.6 pmol/10^6 cells/min
[^14C]-Citrate Uptake, % [3]: 67%
Km [8]: 20 ± 1 µM
Uptake of radiolabelled succinate in drIndy cRNA-injected vs water-injected oocytes [9]: 12 fold
Succinate uptake at physiological concentrations [10]: 0.48±0.01 nmol/10^6 cells/minute
